“Also recorded” adds a separate entry of the source.
Experiments:
[1] = Lipophilicity assay (octanol/buffer); assay type: physicochemical; details: for logD: n-octanol / 10 mM sodium phosphate buffer pH 7.4, LC-UV; for Lipophilicity class from Log D: pH 7.4
Method: 1.56 g NaH2PO4·2H2O was dissolved in 0.5 L water in a 1 L beaker. After adjusting pH to 7.4 using NaOH solution, the volume was made up to 1 L. Equal volumes of sodium phosphate buffer (10 mM, pH 7.4) and n-octanol were added to a separation funnel and mixed thoroughly by shaking and inverting the funnel several times. The two layers were allowed to separate for overnight and then dispensed in two separate glass bottles. 10 mM stock solution was prepared in 100% DMSO and stored at 4° C. 495 μL of organic phase (1-octanol) was added to each well of a 2 mL deep well plate, followed by 495 μL of buffer and 10 μL of test compound was added. The plate was incubated for 3 hr at room temperature on a plate shaker at 500 rpm. After incubation, the samples were allowed to equilibrate for 20 min and then centrifuged at 4000 rpm for 30 min for complete phase separation and analysed by LC-UV.
Log D=Log (area of octanol/area of buffer)

[2] = Metabolic stability using Human Liver Microsomes; assay type: in vitro ADME; details: for % QH (Well stirred model): NADPH, 0-60 min
Method: 1 mM stock solution of test compound was prepared in DMSO and diluted with Acetonitrile:Water (1:1) to get a 100 μM working concentration. 100 mL of Milli Q water was added to K2HPO4 (1.398 g) and KH2PO4 (0.27 g) to get final pH 7.4 solution of potassium phosphate buffer. […] The above mixture was pre incubated for 15 minutes at 37° C. After pre incubation, 32.5 μL of the mixture was added to 17.5 μL of buffer, this was incubated for 60 minutes at 37° C. [60 min Without Cofactor (NADPH)]. 16.25 μL of the pre incubated mixture and 8.75 μL of cofactor was added to 150 μL of acetonitrile containing internal standard [0 min Sample]. 62 μL of cofactor was added to remaining pre incubation mixture [Incubation mixture]. 25 μL of incubation mixture at 0, 5, 15, 30, 60 min and 60 min without cofactor were precipitated with 150 μL of acetonitrile containing internal standard, vortexed and centrifuged at 4000 rpm at 4° C. for 20 minutes. 120 μL of supernatant was diluted with 120 μL of water and analyzed by LC-MS/MS [sample preparation].

ATGL [3] = experiment: qPCR of ATGL mRNA in HepG2 cells; assay type: cell-based; details: 5 μM and 10 μM, 24 hours
Method: Ubiquitination of ATGL by COP1 is a post translational event, therefore, it is expected that the mRNA level of ATGL will not change compared to control upon treatment with the compound of the present disclosure which inhibit COP1. To establish this, HepG2 cells were treated with 5 μM and 10 μM of the compounds 9, 107, 171, 179 and 73 for 24 hours. RNA was isolated using TRIzol reagent followed by chloroform treatment and precipitation with isopropanol. cDNA was obtained from the isolated RNA and qPCR was carried out using SyBr green reagent. COP1 and ATGL gene expression levels were checked. 18s was used as control. FIG. 8 illustrates that compounds exert no effect on the mRNA levels of ATGL.

HepG2 cells = experiment: Basal oxygen consumption rate (OCR) by Seahorse; assay type: cell-based; details: 5 μM, 24 hours
Method: HepG2 cells were plated in Seahorse cell culture microplates (24 well). Cells were treated with 5 μM of compounds 9, 107, 238 and 238a for 24 hours. The calibrator plate was dipped in the calibrator solution and incubated overnight at 37° C. in a non-CO2 incubator. The next day, cells were washed with Agilent Seahorse XF Base Medium, Minimal DMEM twice, making sure to leave at least 50 μl of media in the wells and incubated for 1 hour at 37° C. in a non-CO2 incubator. Following this, oxygen consumption rate was measured in the Seahorse instrument. FIG. 12 illustrates basal oxygen consumption rate of compounds 9, 107, 238a, and 238.

ATGL [4] = experiment: ATGL level in primary mouse hepatocytes (western blot); assay type: cell-based; details: 24 hours
Method: To further strengthen the efficiency of the compounds 9 and 107, primary hepatocytes were isolated from mice and these compounds were treated in a dose dependent manner for 24 hours. Primary hepatocytes and adipose tissue explants were isolated from mice and subjected to compound treatment for 24 hours at the doses of 100 nM, 500 nM and 1 μM. Post cell harvesting, western blot was carried out with the lysate to check the ATGL level. ATGL and COP1 antibodies were used. Actin served the purpose of a loading control.
1. Hepatocytes—2-4 months old chow-fed black male mouse (C57bl/6) was sacrificed using chloroform (SRL) and was cleaned with 70% ethanol. […] Blood was drawn from the heart in order to prevent backflow into liver while perfusion. The butterfly cannula was inserted into the PV and 20 ml of HBSS (Hank's Balanced Salt Solution; 5 mM KCl, 0.4 mM KH2PO4, 4 mM NaHCO3, 140 mM NaCl, 0.3 mM Na2HPO4, 6 mM Glucose, HEPES, 0.5 mM MgCl2·6H2O, 0.4 mM MgSO4·7H2O, 0.5 mM EDTA; not containing 1 mM CaCl2)) was allowed to pass through the liver (Perfusion) at a constant flow rate of 3 ml/min, maintained by Masterflex digital peristaltic pump (Cole-Parmer). The IVC was cut as soon as the passage of the buffer through the liver began, so that blood and perfusate from liver is drained through the IVC. The liver blanched and became pale in color upon this treatment.
After the passage of HBSS, 25 ml of Collagenase (Roche) solution (1 mg/ml) in HBSS (containing 1 mM CaCl2)) was allowed to pass through the liver at a constant flow rate of 2 ml/min. After this digestion, the flow was stopped, the cannula removed and the pale and soggy lobes of the liver were gently excised from the body. The gall bladder was removed from the isolated liver. The pieces of digested liver tissue were then minced on a 10 cm culture plate in HBSS (containing 1 mM CaCl2)). The resulting suspension was then passed through a […] cell strainer (SPL) to allow hepatocytes to pass through to the filtrate and retain cellular clumps and undigested tissue. The filtrate was centrifuged at 50 g for 2 minutes at 4° C. […]

Row | logD [1] | Lipophilicity class from Log D [1] | Clearance class from % QH [2] | % QH (Well stirred model) [2] | Structure (SMILES) | ATGL mRNA level (ATGL [3]) | Basal oxygen consumption rate (HepG2 cells) | ATGL level in primary mouse hepatocytes (ATGL [4])
1 | 0.42 | hydrophilic | lower clearance | 15.5% | COCCn1c(-c2cccnc2)nc2ccc(NC(=O)Nc3cccc(C(C)=O)c3)cc2c1=O [Compound 215, 1-(3-acetylphenyl)-3-(3-(2-methoxyethyl)-4-oxo-2-(pyridin-3-yl)-3,4-dihydroquinazolin-6-yl)urea] | – | – | –
2 | 1.69 | ideal lipophilicity | – | – | COCC(C)n1cnc2ccc(NC(=O)Nc3cccc(C(C)=O)c3)cc2c1=O (centres unmarked) [Compound 179, 1-(3-acetylphenyl)-3-(3-(1-methoxypropan-2-yl)-4-oxo-3,4-dihydroquinazolin-6-yl)urea] | no significant changes | – | –
3 | – | – | – | – | COCCn1c(C)nc2ccc(NC(=O)Nc3cccc(C(C)=O)c3)cc2c1=O [Compound 107, 1-(3-acetylphenyl)-3-(3-(2-methoxyethyl)-2-methyl-4-oxo-3,4-dihydroquinazolin-6-yl)urea] | no significant changes | higher oxygen consumption rate compared to control; also recorded: increase in the basal OCR values | increase ATGL level; also recorded: subtle inclination towards increasing ATGL level
4 | – | – | lower clearance | 21.26% | COCCn1cnc2ccc(NC(=O)Nc3cccc(C(C)=O)c3)cc2c1=O [Compound 9, 1-(3-acetylphenyl)-3-(3-(2-methoxyethyl)-4-oxo-3,4-dihydroquinazolin-6-yl)urea] | no significant changes | higher oxygen consumption rate compared to control; also recorded: increase in the basal OCR values | increase ATGL level; also recorded: subtle inclination towards increasing ATGL level
5 | 0.19 | hydrophilic | lower clearance | 24.5% | COCCn1c(-c2ccncc2)nc2ccc(NC(=O)Nc3cccc(C(C)=O)c3)cc2c1=O [Compound 219, 1-(3-acetylphenyl)-3-(3-(2-methoxyethyl)-4-oxo-2-(pyridin-4-yl)-3,4-dihydroquinazolin-6-yl)urea] | – | – | –
6 | -0.5 | hydrophilic | medium clearance | 35.3% | CC(=O)c1cccc(NC(=O)Nc2ccc3ncn(CCCN4CCOCC4)c(=O)c3c2)c1 [Compound 139, 1-(3-acetylphenyl)-3-(3-(3-morpholinopropyl)-4-oxo-3,4-dihydroquinazolin-6-yl)urea] | – | – | –
7 | 1.6 | ideal lipophilicity | higher clearance | 83.5% | COCCn1c(CN2CCCCC2)nc2ccc(NC(=O)Nc3cccc(C(C)=O)c3)cc2c1=O [Compound 238, 1-(3-acetylphenyl)-3-(3-(2-methoxyethyl)-4-oxo-2-(piperidin-1-ylmethyl)-3,4-dihydroquinazolin-6-yl)urea] | – | higher oxygen consumption rate compared to control; also recorded: increase in the basal OCR values | increase ATGL and COP1 levels dose dependently; also recorded: enhance ATGL levels at 1 μM and 5 μM doses

Reference: patent US12528777B2, “Quinazolinones derivatives for treatment of non-alcoholic fatty liver disease, preparation and use thereof” (Council of Scientific and Industrial Research, priority 2020, dated 2026)
